Test results from US20180244653A1, “SELECTIVE ALPHA-7 NICOTINIC RECEPTOR AGONISTS AND METHODS FOR MAKING AND USING THEM” (THE REGENTS OF THE UNIVERSITY OF CALIFORNIA, priority 2015, published 2018).
Entries after “also recorded” stand apart in the source; their conditions may differ. Where two headings read alike, the source gives them in different places.

Key:
[1] = tested on: physiologically induced amnesia mice; experiment: ORT with 24 h time delay (natural memory loss); format: in vivo; details: 24 h delay; i.p.
Description: Both compounds were further evaluated on a physiologic amnesic model by using ORT with 24 h time delay to induce natural memory loss in mice. The appropriate time delay causing amnesia was initially selected by varying delay times (24, 48, and 72 h) between sample and test phase that have identical and different objects, respectively. […] Therefore, 24 h was used as the time delay between sample and test phase.
FIG. 27 illustrates exploration time to familiar (F) and novel (N) objects in test phase of ORT following a time delay. Each mouse was allowed to explore an open field apparatus for 5 min in a habituation phase one day before a sample phase. In the test day, vehicle (SH) and test compounds IND8, QND8 and PNU were injected 1 h before measurement of exploration time. Each mouse was allowed to explore 2 identical objects in the sample phase for 5 min. On the next day (24 h), one of the objects was changed to a new one and the mouse was allowed to explore these objects for 5 min. The exploration time of these objects was recorded. Data are presented as means±SE, n=6-8 mice/group. **p<0.01, ***p<0.001 vs exploration time of familiar object, paired student's t-test.
The DI was calculated and compared with the control group to evaluate IND8, QND8, and PNU-282987 enhancement of cognitive function. Data are shown in FIG. 28, which illustrates discrimination index (TN−TF/TN+TF) of each compound in the test phase of ORT with time delay protocol. There was a significant difference in DI (F6,43=6.097, p<0.001, n=6-8 mice/group). **p<0.01, ***p<0.001 vs vehicle group (SH), one-way ANOVA with Fisher's LSD post hoc comparison.
The apparatus used in this experiment was the same as ORT test. This experiment was divided into 2 parts directed to dose finding and establishing mechanism of action.
For dose finding protocol, the mice were randomly divided into different treatment groups, a control group receiving a vehicle and tested groups receiving PNU-282987 at 3, 10 mg/kg, and IND8, QND8 for 10, 25 μmol/kg, single dose. They were allowed to freely explore the open field apparatus for 5 min for habituation in a day before the experiment (day 1). On the test day (day 2), the test compound was injected 1 h before the sample phase. In this phase, mice were placed in the apparatus to explore two identical objects. On the next day (day 3), one object was changed to a new one and mice were allowed to explore these objects for 5 min in the test phase. For proving cognitive enhancement mediated through α7-nAChRs, the protocol was the same as mentioned above except MLA (3 mg/kg), selective α7-nAChR antagonist, was injected 5 min before test compounds in the sample phase (day 2) to block the cognitive enhancement effect from test compounds. The dose of test compounds is selected from the effective dose from the former experiment. The exploration time of each object was recorded if the nose of mouse came within 3 cm or touched the objects. The discrimination index (DI) was calculated by using (TN−TF)/(TN+TF); TN and TF represented exploration time of new and familiar objects, respectively.

5HT3A receptors [2] = molecular target: T1, 5HT3A receptors (Mus musculus, UniProt P23979); experiment: FRET functional assay (agonist/antagonist) using LGIC-CNiFERs; format: cell-based; details: for EC50: read-out: Agonist EC50 ± SD, 5HT3A
T1 construct: expressed in transfected cells; host or cells: HEK293 cells co-expressing TN-XXL
T1 sequence (P23979 24-489): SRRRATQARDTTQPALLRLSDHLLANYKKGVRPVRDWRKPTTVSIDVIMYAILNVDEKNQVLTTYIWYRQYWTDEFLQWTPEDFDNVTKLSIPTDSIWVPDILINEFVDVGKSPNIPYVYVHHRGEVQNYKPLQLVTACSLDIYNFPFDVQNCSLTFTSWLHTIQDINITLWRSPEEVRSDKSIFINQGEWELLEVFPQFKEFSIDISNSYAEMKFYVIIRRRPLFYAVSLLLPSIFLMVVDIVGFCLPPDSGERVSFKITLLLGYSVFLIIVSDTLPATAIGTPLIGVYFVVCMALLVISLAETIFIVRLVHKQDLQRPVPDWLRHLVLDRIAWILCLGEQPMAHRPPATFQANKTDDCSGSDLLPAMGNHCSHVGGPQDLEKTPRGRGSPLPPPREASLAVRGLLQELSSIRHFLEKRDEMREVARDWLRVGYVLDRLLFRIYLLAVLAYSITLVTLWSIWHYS
Description: (§1) Initially, the agonist properties of tested compounds were assessed directly. […] All α7-nAChR functional assays were performed in the presence of PNU-120596, an α7-nAChR positive allosteric modulator (PAM), to increase signal and delay the sensitization state of α7-nAChRs enabling the measurement of more prolonged FRET signals.^29 Compounds having agonist responses of >0.20 were determined for EC50, and compounds having inhibition fraction of >0.50 were determined for KA.^25 EC50>13.3 μM and KA>10 μM which are a screening concentration for agonist and antagonist, respectively were reported compounds not taken for further in the screening of receptor occupation and responses.
(§2) Agonist and antagonist elicited responses were characterized using the above CNiFER cell expressing Cys-loop ligand-gated ion channel (LGIC) receptors. […] A 96-well black, clear-bottom microplate (Greiner bio-one, Germany) was coated with poly-D-lysine (Sigma-Aldrich, St. Louis, Mo.) 50 μL/well for 30 min and washed out with Phosphate-Buffered Saline (PBS) (Corning, Cellgro, Manassas, Va.) before plating the cells. After plating and incubation at 37° C. for 1 day, the media was replaced with 100 μL of artificial cerebrospinal fluid (aCSF: 121 mM NaCl, 5 mM KCl, 26 mM NaHCO3, 1.2 mM NaH2PO4H2O, 10 mM glucose, 2.4 mM CaCl2, 1.3 mM MgSO4, 5 mM HEPES, pH 7.4) for 4032 and 5HT3A receptors, whereas 10 μM PNU-120596 (Tocris Bioscience, Bristol, UK) in aCSF with 30 min incubation at 37° C. was used for α7-nAChR. The tested compounds were prepared in aCSF for all receptors except α7-nAChR, where 10 μM PNU-120596, a positive allosteric modulator (PAM) was used. The prepared compounds were added in a separate 96-well polypropylene plate (Costar, Corning, N.Y.). Experiments were conducted at 37° C. using 436-nm excitation. Emitted light was collected at 485 nm and 528 nm. Basal fluorescence was recorded for 30 s, followed by addition of 50 μL of ligand (first addition). Measurements were made at 3.84 s intervals for 2 min to measure the agonistic effect. […] Agonist and antagonist properties were sequentially screened at the final concentration of 13.3 and 10 μM, respectively, which differed from the screening concentration from intact cell binding assay (10 μM).

α4β2-nAChRs [3] = molecular target: T2, α4β2-nAChRs (Homo sapiens, UniProt P17787+P43681); experiment: as above; format: cell-based; details: for Functional properties at α4β2-nAChRs (agonist / antagonist, type): functional screening and characterization
T2 construct: expressed in transfected cells; host or cells: HEKtsA201 cells co-expressing TN-XXL
Description: as §1, §2

α7-nAChRs = molecular target: T3, α7-nAChRs (Homo sapiens, UniProt P36544); experiment: as above; format: cell-based; details: for EC50: in presence of 10 μM PNU-120596, * partial agonist, >10 = did not pass initial screen, read-out: Agonist EC50 ± SD, α7
T3 construct: expressed in transfected cells; host or cells: HEKtsA201 cells co-expressing TN-XXL
Description: as §1, §2

α4β2-nAChRs [4] = molecular target: T2, α4β2-nAChRs; experiment: Intact cell competitive radioligand binding assay ([3H]-(±)-epibatidine, SPA), LGIC-CNiFERs; details: 10 μM, more than 50% radioligand displacement
5HT3A receptors [5] = molecular target: T1, 5HT3A receptors; experiment: Intact cell competitive radioligand binding assay ([3H]-granisetron, SPA), LGIC-CNiFERs; details: 10 μM, more than 50% radioligand displacement
[6] = molecular target: α7/5HT3A chimera receptor (hα7/m5HT3A), used for α7-nAChRs (UniProt P23979+P36544, M226I/T225I); experiment: Intact cell competitive radioligand binding assay ([3H]-(±)-epibatidine, SPA), LGIC-CNiFERs
[7] = functional screening and characterization

Which “Discrimination index / cognition enhancement, ORT time delay vs control group” value [1] does the source give for `CCN1C[C@]2(COC(=O)c3ccccc3N3C(=O)C[C@H](C)C3=O)CC[C@H](OC)[C@@]34[C@@H]5C[C@H]6[C@H](OC)[C@@H]5[C@](O)(C[C@@H]6OC)[C@@](O)([C@@H](OC)[C@H]23)[C@@H]14` [MLA, methyllycaconitine, reference compound] here?
Its value is “does not enhance episodic memory; also recorded: did not have cognitive enhancement effect”.

For `c1ccc(-c2ccc(-c3cn(CCN4CCCCC4)nn3)cc2)cc1` [PPRD7, 1-(2-(4-(Biphenyl-4-yl)-1,2,3-triazol-1-yl)ethyl)piperidine], which Kd (5HT3A receptors [2]; competitive antagonist (^C), >10 = did not pass initial screen, vs 5-HT, read-out: Antagonist KA ± SD, 5HT3A) is on record?
Its Kd is over 10 µM.

What about the “Functional properties at 5HT3A receptors (agonist / antagonist, type)” value (5HT3A receptors [2]; [7]) of the same molecule?
The value was “did not pass the functional screening”.

And the EC50 (5HT3A receptors [2])?
The EC50 was over 10 µM.

What about the “Functional properties at α4β2-nAChRs (agonist / antagonist, type)” value (α4β2-nAChRs [3]) of the same molecule?
The value was “did not pass the functional screening”.

And the Kd (α4β2-nAChRs [3]; read-out: Antagonist KA ± SD, α4β2)?
The Kd was over 10 µM.

What about the “Functional properties at α7-nAChRs (agonist / antagonist)” value (α7-nAChRs; [7]) of the same molecule?
Its value is “did not pass the functional screening”.

What about the EC50 (α7-nAChRs) of the same molecule?
The EC50 was over 10 µM.

And the “Initial screening for binding to α4β2-nAChRs” value (α4β2-nAChRs [4])?
The value was “cannot bind to all tested LGIC receptors”.

What about the “Initial screening for binding to 5HT3A receptors” value (5HT3A receptors [5]) of the same molecule?
Its value is “cannot bind to all tested LGIC receptors”.

What about the “Initial screening for binding to α7-nAChRs” value ([6]; 10 μM, more than 50% radioligand displacement) of the same molecule?
The value was “cannot bind to all tested LGIC receptors”.

Which results are given for `Cn1ccc2cc(-c3cn(C4CN5CCC4CC5)nn3)ccc21` (stereo not shown) [QND9, 3-(4-(1-Methyl-indol-5-yl)-1,2,3-triazol-1-yl)quinuclidine]?
EC50 (5HT3A receptors [2]): 1.38 ± 0.52 µM; Kd (α4β2-nAChRs [3]; Antagonist KA ± SD, α4β2, competitive antagonist (^C), >10 = did not pass initial screen, vs (±)-epibatidine): 5.2 ± 1.2 µM; Functional properties at α4β2-nAChRs (agonist / antagonist, type) (α4β2-nAChRs [3]): mix-competitive antagonist; Kd (α4β2-nAChRs [3]; read-out: Antagonist KA ± SD, α4β2, non-competitive): 6.5 ± 0.2 µM; EC50 (α7-nAChRs): 1 ± 0.04 µM; Initial screening for binding to α4β2-nAChRs (α4β2-nAChRs [4]): associate well with α4β2-nAChRs; Fold increase of Kd (α7-nAChRs) compared to IND8 [6]: 15 fold; Kd ([6]; read-out: Kd ± SD, α7-nAChRs, >10 = did not pass initial screen at 10 μM): 1.88 µM
